From ChEMBL document CHEMBL1201862, “PubChem BioAssay data set” (2004)
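Exposure lasted 48 hours, with cells grown in 96-well plates and compounds tested at five concentrations. Here, GI50 denotes the concentration required for 50% inhibition of growth.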 Calls of active or inactive are those of the source. No stated cut-off is given here; in the data, active = GI50 up to about 1.1 µM and inactive = higher.

Assays:
Assay in all cases: NCI tumour cell line growth inhibition, 48 h
SK-MEL-5 = tested on: SK-MEL-5
786-0 = tested on: 786-0
A498 = tested on: A498
KM-20L2 = tested on: KM-20L2
HCT-15 = tested on: HCT-15
MOLT-4 = tested on: MOLT-4
M19-MEL = tested on: M19-MEL
UO-31 = tested on: UO-31
SF-295 = tested on: SF-295
UACC-62 = tested on: UACC-62
SK-MEL-2 = tested on: SK-MEL-2
LXFL 529 = tested on: LXFL 529
ACHN = tested on: ACHN
RPMI-8226 = tested on: RPMI-8226
CCRF-CEM = tested on: CCRF-CEM
HOP-92 = tested on: HOP-92
SNB-19 = tested on: SNB-19
HCC 2998 = tested on: HCC 2998
EKVX = tested on: EKVX
HL-60 = tested on: HL-60
SK-MEL-28 = tested on: SK-MEL-28
HCT-116 = tested on: HCT-116
HOP-18 = tested on: HOP-18
NCI-H23 = tested on: NCI-H23
NCI-H460 = tested on: NCI-H460
LOX IMVI = tested on: LOX IMVI
SK-OV-3 = tested on: SK-OV-3
COLO 205 = tested on: COLO 205
M14 = tested on: M14
IGROV-1 = tested on: IGROV-1
SW-620 = tested on: SW-620
CAKI-1 = tested on: CAKI-1
Malme-3M = tested on: Malme-3M
DLD-1 = tested on: DLD-1
OVCAR-4 = tested on: OVCAR-4
DMS-273 = tested on: DMS-273
HT-29 = tested on: HT-29
K562 = tested on: K562
U-251 = tested on: U-251
SF-539 = tested on: SF-539
SR = tested on: SR
UACC-257 = tested on: UACC-257
RXF 393 = tested on: RXF 393
SF-268 = tested on: SF-268
SNB-78 = tested on: SNB-78
NCI-H522 = tested on: NCI-H522
A549 = tested on: A549
SN12C = tested on: SN12C
OVCAR-8 = tested on: OVCAR-8
DMS-114 = tested on: DMS-114
NCI-H226 = tested on: NCI-H226
KM12 = tested on: KM12
OVCAR-3 = tested on: OVCAR-3
HOP-62 = tested on: HOP-62
TK-10 = tested on: TK-10
SNB-75 = tested on: SNB-75
OVCAR-5 = tested on: OVCAR-5
XF498 = tested on: XF498

N=C1OC(c2ccc3c(c2)OCO3)C(NNS(=O)(=O)c2ccccc2)=C1O (stereo not drawn)
GI50 (SK-MEL-5): 38.1 µM (inactive)
GI50 (786-0): > 100 µM (inactive)
GI50 (A498): > 100 µM (inactive)
GI50 (KM-20L2): > 100 µM (inactive)
GI50 (HCT-15): > 100 µM
GI50 (MOLT-4): > 100 µM (inactive)
GI50 (M19-MEL): 30.4 µM (inactive)
GI50 (UO-31): > 100 µM (inactive)
GI50 (SF-295): > 100 µM (inactive)
GI50 (UACC-62): > 100 µM (inactive)
GI50 (SK-MEL-2): 68.2 µM (inactive)
GI50 (LXFL 529): 58.2 µM (inactive)
GI50 (ACHN): > 100 µM (inactive)
GI50 (RPMI-8226): 87.1 µM (inactive)
GI50 (CCRF-CEM): 44.6 µM (inactive)
GI50 (HOP-92): > 100 µM (inactive)
GI50 (SNB-19): > 100 µM (inactive)
GI50 (HCC 2998): > 100 µM (inactive)
GI50 (EKVX): > 100 µM (inactive)
GI50 (HL-60): > 100 µM (inactive)
GI50 (SK-MEL-28): > 100 µM (inactive)
GI50 (HCT-116): > 100 µM (inactive)
GI50 (HOP-18): > 100 µM (inactive)
GI50 (NCI-H23): 52.5 µM (inactive)
GI50 (NCI-H460): > 100 µM (inactive)
GI50 (LOX IMVI): > 100 µM (inactive)
GI50 (SK-OV-3): > 100 µM (inactive)
GI50 (COLO 205): > 100 µM (inactive)
GI50 (M14): 46.6 µM (inactive)
GI50 (IGROV-1): > 100 µM (inactive)
GI50 (SW-620): > 100 µM (inactive)
GI50 (CAKI-1): > 100 µM (inactive)
GI50 (Malme-3M): > 100 µM (inactive)
GI50 (DLD-1): > 100 µM (inactive)
GI50 (OVCAR-4): > 100 µM (inactive)
GI50 (DMS-273): > 100 µM (inactive)
GI50 (HT-29): > 100 µM (inactive)
GI50 (K562): > 100 µM (inactive)
GI50 (U-251): 54.7 µM (inactive)
GI50 (SF-539): > 100 µM (inactive)
GI50 (SR): 61.2 µM (inactive)
GI50 (UACC-257): > 100 µM (inactive)
GI50 (RXF 393): > 100 µM (inactive)
GI50 (SF-268): > 100 µM (inactive)
GI50 (SNB-78): > 100 µM (inactive)
GI50 (NCI-H522): 48.5 µM (inactive)
GI50 (A549): > 100 µM (inactive)
GI50 (SN12C): > 100 µM (inactive)
GI50 (OVCAR-8): > 100 µM (inactive)
GI50 (DMS-114): > 100 µM (inactive)
GI50 (NCI-H226): > 100 µM (inactive)
GI50 (KM12): > 100 µM (inactive)
GI50 (OVCAR-3): > 100 µM (inactive)
GI50 (HOP-62): > 100 µM (inactive)
GI50 (TK-10): > 100 µM (inactive)
GI50 (SNB-75): > 100 µM (inactive)
GI50 (OVCAR-5): > 100 µM (inactive)

Cn1cc(NC(=O)[C@H]2CCC(N)=N2)cc1C(=O)NCCC(=N)N
GI50 (786-0): > 100 µM (inactive)
GI50 (KM-20L2): > 100 µM (inactive)
GI50 (MOLT-4): > 100 µM (inactive)
GI50 (UO-31): > 100 µM (inactive)
GI50 (SF-295): > 100 µM (inactive)
GI50 (UACC-62): > 100 µM (inactive)
GI50 (SK-MEL-2): > 100 µM (inactive)
GI50 (LXFL 529): > 100 µM (inactive)
GI50 (ACHN): > 100 µM (inactive)
GI50 (RPMI-8226): > 100 µM (inactive)
GI50 (CCRF-CEM): > 100 µM (inactive)
GI50 (HOP-92): > 100 µM (inactive)
GI50 (SNB-19): > 100 µM (inactive)
GI50 (HCC 2998): > 100 µM (inactive)
GI50 (EKVX): > 100 µM (inactive)
GI50 (HL-60): > 100 µM (inactive)
GI50 (SK-MEL-28): > 100 µM (inactive)
GI50 (HCT-116): > 100 µM (inactive)
GI50 (HOP-18): > 100 µM (inactive)
GI50 (NCI-H23): > 100 µM (inactive)
GI50 (NCI-H460): > 100 µM (inactive)
GI50 (XF498): > 100 µM (inactive)
GI50 (LOX IMVI): > 100 µM (inactive)
GI50 (SK-OV-3): > 100 µM (inactive)
GI50 (COLO 205): > 100 µM (inactive)
GI50 (M14): > 100 µM (inactive)
GI50 (IGROV-1): > 100 µM (inactive)
GI50 (SW-620): > 100 µM (inactive)
GI50 (Malme-3M): > 100 µM (inactive)
GI50 (DLD-1): > 100 µM (inactive)
GI50 (DMS-273): > 100 µM (inactive)
GI50 (HT-29): > 100 µM (inactive)
GI50 (K562): > 100 µM (inactive)
GI50 (U-251): > 100 µM (inactive)
GI50 (SF-539): > 100 µM (inactive)
GI50 (SR): > 100 µM (inactive)
GI50 (UACC-257): > 100 µM (inactive)
GI50 (RXF 393): > 100 µM (inactive)
GI50 (SF-268): > 100 µM (inactive)
GI50 (SNB-78): > 100 µM (inactive)
GI50 (NCI-H522): > 100 µM (inactive)
GI50 (A549): > 100 µM (inactive)
GI50 (SN12C): > 100 µM (inactive)
GI50 (OVCAR-8): > 100 µM (inactive)
GI50 (DMS-114): > 100 µM (inactive)
GI50 (NCI-H226): > 100 µM (inactive)
GI50 (KM12): > 100 µM (inactive)
GI50 (OVCAR-3): > 100 µM (inactive)
GI50 (HOP-62): > 100 µM (inactive)
GI50 (TK-10): > 100 µM (inactive)
GI50 (SNB-75): > 100 µM (inactive)
